Measured values taken from ChEMBL document CHEMBL1130365, “4-Sulfonamidoanilide tertiary carbinols: A novel series of potassium channel openers” (Bioorg Med Chem Lett, 1997).

Molecular target: Sulfonylurea receptors; K-ATP channels (Homo sapiens, UniProt O60706+Q09428+Q14654+Q15842)
Assay: Compound was measured in vitro for potassium channel opening (PCO) activity
Type: protein-complex assay, Cavia porcellus

Row | SMILES | IC50 [µM]
1 | CC(O)(C(=O)Nc1ccc(/C(=N\O)c2ccccc2)cc1)C(F)(F)F (mixture of isomers) | > 30
2 | CC(O)(C(=O)Nc1ccc([C@@H](O)c2ccccc2)cc1)C(F)(F)F (mixture of isomers) | > 30
3 | CC(O)(C(=O)Nc1ccc([C@H](O)c2ccccc2)cc1)C(F)(F)F (mixture of isomers) | > 30
4 | CC(O)(C(=O)Nc1ccc(S(=O)(=O)N(c2ccccc2)c2ccccc2)cc1)C(F)(F)F (racemic) | > 30
5 | CO/N=C(/c1ccccc1)c1ccc(NC(=O)C(C)(O)C(F)(F)F)cc1 (racemic) | > 30
6 | CC(O)(C(=O)Nc1ccc(S(=O)(=O)Nc2ccccc2)cc1)C(F)(F)F (racemic) | > 30
7 | CCN(CC)C(=O)c1ccc(NC(=O)C(C)(O)C(F)(F)F)cc1 (racemic) | > 30
8 | CC(O)(C(=O)Nc1ccc(S(=O)(=O)N2CCSCC2)cc1)C(F)(F)F (racemic) | 4.58
9 | CC(O)(C(=O)Nc1ccc(S(=O)(=O)N2CCOCC2)cc1)C(F)(F)F (racemic) | 5.85
10 | CCC(C)N(C(C)CC)S(=O)(=O)c1ccc(NC(=O)C(C)(O)C(F)(F)F)cc1 (racemic) | > 30
11 | CC(O)(C(=O)Nc1ccc(Sc2ccccc2)cc1)C(F)(F)F (racemic) | > 30
12 | CC(O)(C(=O)Nc1ccc(-c2nn[nH]n2)cc1)C(F)(F)F (racemic) | > 30
13 | CN(C)S(=O)(=O)c1ccc(NC(=O)C(C)(O)C(F)(F)F)cc1 (racemic) | 0.48
14 | CCN(CC)S(=O)(=O)c1ccc(NC(=O)C(C)(O)C(F)(F)F)cc1 (racemic) | 0.81
15 | CC(O)(C(=O)Nc1ccc(S(=O)(=O)N2CCCC2)cc1)C(F)(F)F (racemic) | 0.88
16 | Cn1nnnc1-c1ccc(NC(=O)C(C)(O)C(F)(F)F)cc1 (racemic) | 30.9
17 | CCCN(CCC)S(=O)(=O)c1ccc(NC(=O)C(C)(O)C(F)(F)F)cc1 (racemic) | 6.44
18 | CC(C)CN(CC(C)C)S(=O)(=O)c1ccc(NC(=O)C(C)(O)C(F)(F)F)cc1 (racemic) | > 30
19 | CC(O)(C(=O)Nc1ccc(S(=O)(=O)N2CCNCC2)cc1)C(F)(F)F (racemic) | > 30
20 | CC(O)(C(=O)Nc1ccc(S(=O)(=O)N2CCCCC2)cc1)C(F)(F)F (racemic) | 9.25
21 | CC(O)(C(=O)Nc1ccc(S(N)(=O)=O)cc1)C(F)(F)F (racemic) | 12.8
